The text below walks through data of patent publication USRE35517E, “Method, compositions, and compounds for modulating brain excitability” (priority 1992, dated 1997).

For data set [1], the system named is convulsions. Nature of the data set: Anticonvulsant screen (chemical convulsants and maximal electroshock), overall. The format is in vivo, mice. To be noted: in comparison to clinically useful anticonvulsants, benzodiazepines. Here is the method: Experiments were also performed to determine the physiological relevance of these interactions by measuring the ability of the compounds of and used in the invention to modulate TBPS-induced convulsions in Swiss-Webster mice. […] The time to onset of myoclonus (presence of forelimb clonic activity) induced by TBPS was determined by observing each mouse of a period of 45 minutes. Significant differences between the time to onset in control mice vs. steroid-treated mice were determined by Student's t-test. […] The number of animals with tonic and/or clonic convulsions was recorded. In the maximal electroshock test, 50 mA of current at 60 Hz was delivered through corneal electrodes for 200 msec. […] The ED50 (the dose at which the half-maximal effect occurs) dose was determined for each screen.

Data set [2] relates to BZ receptor. Kind of data set: Modulation of [3H]flunitrazepam binding in rat hippocampal homogenates, with pentobarbital (FIG. 3). The following applies: 1.0 millimolar pentobarbital, 0.25 nM [3H]FLU, absence of GABA.
The nature of data set [3]: Acute lethality (LD50). The following applies: mice; from therapeutic index.
Data set [4] has as its system rotorod performance. Nature of the data set: Rotorod test (sedative potential). Set-up: ED50 RR (rotorod): unit not given beside the values. To be noted: mice.
In data set [5] the test system is GABA/benzodiazepine receptor-chloride ionopore complex (GBR complex). Kind of data set: Dissociation kinetics of [35S]TBPS in rat cerebral cortical membranes. It is filed as binding. The following applies: for biphasic dissociation mechanism of [35S]TBPS: FIGS. 2A, 2B, pentobarbital 30 micromolar, alphaxalone 300 nanomolar, 5-alpha-pregnan-3-alpha-hydroxy-20-one 20 nanomolar; for t1/2, R (rapidly dissociating component) / t1/2, S (slowly dissociating component): 30 nM Na pentobarbital; for Total percentage of specific sites, R: rapidly dissociating component, Na pentobarbital (**P < 0.01 vs control); for Total percentage of specific sites, S: slowly dissociating component, Na pentobarbital (*P < 0.05 vs control). On the procedure: An assay was performed to determine the effect of pentobarbital on the dissociation kinetics of [^35 S]TBPS in rat cerebral cortical membranes. This assay was performed in accordance with the procedures outlined above. […] Dissociation of bound [^35 ]TBPS was initiated by 2 micromolar TBPS in all cases.

For data set [6] the test system is unchanged. Nature of the data set: Modulation of [35S]TBPS binding in rat cerebral cortex P2 homogenate. The following applies: for +5 μM IC50: inhibition of 2 nM [35S]TBPS binding, +5 μM (GABA); for +5 μM IC50 / CONTROL IC50: 25° C., 90 minutes; for CONTROL IC50: inhibition of basal 2 nM [35S]TBPS binding. Set-up: species or system rat (male Sprague-Dawley). On the procedure:
These procedures were performed as follows:

Data set [7] has as its system strychnine. The arrangement: key to ED50 STR (strychnine): NP: no protection. The following applies: mice, cited from earlier work.
The subject of data set [8] is rotorod performance. The arrangement: unit not given beside the values. The following applies: mice; data from Swinyard & Woodhead 1982; cited from earlier work.
In data set [9] the test system is maximal electroshock. The arrangement: unit not given here. To be noted: mice, cited from earlier work.
For data set [10], the system named is metrazol. The arrangement: key: NP: no protection. To be noted: mice, cited from earlier work.
Data set [11] concerns picrotoxin. Set-up: key: NP: no protection. The following applies: mice, cited from earlier work.
Data set [12] has as its system (+)bicuculline-induced seizures. The arrangement: key: NP: no protection. The following applies: mice, cited from earlier work.
Data set [13] deals with premenstrual syndrome, PND, catamenial epilepsy. The following applies: patients, cited from earlier work.
[14] abbreviates: [35S]TBPS dissociation, rat cortex, 300 nM alphaxalone, 20 nM a-OH-DHP.
The mark [15] stands for this setting: [35S]TBPS dissociation, rat cortex, Na pentobarbital, 300 nM alphaxalone, 20 nM a-OH-DHP.
Setting [16] is: 300 nM alphaxalone, 20 nM a-OH-DHP.
[17] abbreviates: data from Swinyard & Woodhead 1982, NP = no protection.
Where [18] appears, read: data from Swinyard & Woodhead 1982.
The mark [19] stands for this setting: convulsant administered i.v., data from Worms et al. 1982.

Where two headings read alike, the source gives them in different places.

On to `CC(=O)[C@H]1CC[C@H]2[C@@H]3CC[C@H]4C[C@H](O)CC[C@]4(C)[C@H]3CC[C@]12C` [3α-OH-DHP, 3α-hydroxy-5α-pregnan-20-one], for which the “anticonvulsant activity / profile” value in data set [1] is “highly effective with a profile similar to that of the benzodiazepine clonazepam”. Moreover, the “interaction with pentobarbital in the enhancement of [3H]flunitrazepam binding” value in data set [2] is on record as “does not interact with pentobarbital”. The “toxicity, in words” value in [3] is given as “very low toxicity”. The “ED50 RR (rotorod)” value in [4] (10 minutes after injection) was 40-100. In data set [4] (rotorod ED50 compared with (+)bicuculline ED50), the “sedative liability at anticonvulsant doses” value is recorded as “low”. Besides, the “biphasic dissociation mechanism of [35S]TBPS” value in data set [5] is “absent”. Moreover, in [5] (setting [14]), the “t1/2, R (rapidly dissociating component)” value is 6.4 ± 1 and the “t1/2, S (slowly dissociating component)” value turned out to be 76 ± 11. Also, the “k-1, S (slowly dissociating component)” value in [5] (setting [15]) was found to be 0.011 ± 0.002 min⁻¹. Moreover, in data set [5] (setting [16]), the “Total percentage of specific sites, R” value came out at 35 ± 3% and the “Total percentage of specific sites, S” value amounted to 68 ± 3%. Also, the “influence on the dissociation kinetics of [35S]TBPS binding” value in data set [5] (rat cerebral cortex) is recorded as “do not influence the dissociation kinetics”.

Take `C[C@]12CC[C@@H]3c4ccc(O)cc4CC[C@H]3[C@@H]1CC[C@@H]2O` [17β-ESTRADIOL]: in data set [6], the “+5 μM IC50” value is reported as “INACTIVE” and the “CONTROL IC50” value is given as “INACTIVE”.

For `CC(=O)[C@H]1CC[C@H]2[C@@H]3CC[C@H]4C[C@@H](O)CC[C@]4(C)[C@H]3CC[C@]12C` [ALLOPREGNANLONE, 5α-PREGNAN-3β-OL- 20-ONE], the “CONTROL IC50” value in data set [6] is given as “INACTIVE”.

On to `CC(C)CCC[C@@H](C)[C@H]1CC[C@H]2[C@@H]3CC=C4C[C@@H](O)CC[C@]4(C)[C@H]3CC[C@]12C` [CHOLESTEROL], for which, in [6], the “+5 μM IC50” value was “INACTIVE” and the “CONTROL IC50” value is on record as “INACTIVE”.

For `C[C@]12C[C@H](O)[C@H]3[C@@H](CCC4=CC(=O)CC[C@@]43C)[C@@H]1CC[C@@H]2C(=O)CO` [CORTICOSTERONE, 4-PREGNEN-11β,21- DIOL-3,20-DIONE], in data set [6], the “CONTROL IC50” value was “INACTIVE”.

For `O=C1CN=C(c2ccccc2Cl)c2cc([N+](=O)[O-])ccc2N1` [Clonazepam], the “ED50 STR (strychnine)” value in [7] (setting [17]) was “NP”. In [8], the “ED50 RR (rotorod)” value is recorded as 0.184. Further, the “ED50 MES (maximal electroshock)” value in [9] (setting [18]) is reported as 93. Moreover, the “ED50 MTZ (metrazol)” value in [10] (setting [17]) is given as 0.009. In data set [11] (setting [17]), the “ED50 PICRO (picrotoxin)” value is 0.043. In data set [12] (setting [17]), the “ED50 BIC (bicuculline)” value is 0.0086.

Turning to `CC(=O)[C@H]1CC[C@H]2[C@@H]3CC=C4C[C@@H](O)CC[C@]4(C)[C@H]3CC[C@]12C` [PREGNENOLONE, 5α-PREGNEN-3β-OL- 20-ONE], the “CONTROL IC50” value in data set [6] is “INACTIVE”.

Turning to `CC(=O)[C@H]1CC[C@H]2[C@@H]3CCC4=CC(=O)CC[C@]4(C)[C@H]3CC[C@]12C` [PROGESTERONE], the “effectiveness in the treatment of PMS, PND and catamenial epilepsy” value in [13] (literature) is “not consistently effective”. Moreover, in data set [13] (Maddocks et al., Dennerstein et al. 1986), the “dose-response relationship in the treatment of PMS” value is “no dose-response relationship exists”. Also, the “potency (and efficacy) at the GBR complex” value in [6] (in vitro, [35S]TBPS binding) is “very low potency”.

As to `CCCC(C)C1(CC)C(=O)NC(=O)NC1=O` (stereo not shown) [Pentobarbital], the “biphasic dissociation mechanism of [35S]TBPS” value in [5] is reported as “induces a biphasic dissociation mechanism”. Also, in data set [5] (setting [14]), the “t1/2, R (rapidly dissociating component)” value was 4.4 ± 0.3 and the “t1/2, S (slowly dissociating component)” value is on record as 38 ± 3. Moreover, in data set [5] (setting [15]), the “k-1, R (rapidly dissociating component)” value is 0.158 ± 0.013 min⁻¹ and the “k-1, S (slowly dissociating component)” value is 0.0186 ± 0.0015 min⁻¹. For the same compound, in data set [5] (setting [16]), the “Total percentage of specific sites, R” value is reported as 48 ± 6% and the “Total percentage of specific sites, S” value was found to be 61 ± 6%.

In the case of `CCC1(c2ccccc2)C(=O)NC(=O)NC1=O` [Phenobarbital], the “ED50 STR (strychnine)” value in [7] (setting [17]) was 95. For the same compound, the “ED50 RR (rotorod)” value in data set [8] was 69. In [9] (setting [18]), the “ED50 MES (maximal electroshock)” value is on record as 22. Moreover, the “ED50 MTZ (metrazol)” value in [10] (setting [17]) is reported as 13. For the same compound, in data set [11] (setting [17]), the “ED50 PICRO (picrotoxin)” value is 28. Moreover, in [12] (setting [17]), the “ED50 BIC (bicuculline)” value is recorded as 38.

In the case of `O=C1NC(=O)C(c2ccccc2)(c2ccccc2)N1` [Phenytoin], the “Maximum protection (strychnine)” value in data set [7] (at 55-100 mg/kg, data from Swinyard & Woodhead 1982) is on record as 50%. In addition, in [10] (setting [17]), the “ED50 MTZ (metrazol)” value was “NP”. The “ED50 PICRO (picrotoxin)” value in data set [11] (setting [17]) is “NP”. For the same compound, in [12] (setting [17]), the “ED50 BIC (bicuculline)” value was “NP”.

Regarding `NC(=O)CCC/N=C(\c1ccc(Cl)cc1)c1cc(F)ccc1O` [Progabide], in [7] (setting [19]), the “ED50 STR (strychnine)” value is 75. In addition, the “ED50 MES (maximal electroshock)” value in [9] (data from Worms et al. 1982) is 75. Also, in data set [10] (setting [19]), the “ED50 MTZ (metrazol)” value is 30. The “ED50 PICRO (picrotoxin)” value in data set [11] (setting [19]) is 105. The “ED50 BIC (bicuculline)” value in [12] (setting [19]) is given as 30.

For `CCCC(CCC)C(=O)O` [Valproate], the “ED50 STR (strychnine)” value in [7] (setting [17]) is given as 293. Moreover, the “ED50 MES (maximal electroshock)” value in data set [9] (setting [18]) is listed as 272. Moreover, the “ED50 MTZ (metrazol)” value in [10] (setting [17]) was 149. For the same compound, the “ED50 PICRO (picrotoxin)” value in [11] (setting [17]) is given as 387. The “ED50 BIC (bicuculline)” value in data set [12] (setting [17]) was 360.
